Source: article PMC3961306, “Comparison of the Cancer Gene Targeting and Biochemical Selectivities of All Targeted Kinase Inhibitors Approved for Clinical Use” (PLoS ONE, 2014)
Where two headings read alike, the source gives them in different places.

Legend:
[1] = test system: forty-four human cancer cell lines; experiment: Cell proliferation assay (ATPlite, 72 hours) in the 44 cell line Oncolines panel; format: cell-based; conditions: Homo sapiens
[2] = molecular target: panel of more than 300 wild-type and mutant kinases (313 kinase panel) (Homo sapiens, UniProt P07947, T348I); experiment: Kinase profiling in a biochemical assay panel (mobility shift assays and ELISA), %-inhibition at 1 μM; selectivity entropy; conditions: kinase YES(T348I); compound at 1 μM
Sequence of panel of more than 300 wild-type and mutant kinases (313 kinase panel) (Homo sapiens, UniProt P07947, T348I) (P07947 whole entry T348I): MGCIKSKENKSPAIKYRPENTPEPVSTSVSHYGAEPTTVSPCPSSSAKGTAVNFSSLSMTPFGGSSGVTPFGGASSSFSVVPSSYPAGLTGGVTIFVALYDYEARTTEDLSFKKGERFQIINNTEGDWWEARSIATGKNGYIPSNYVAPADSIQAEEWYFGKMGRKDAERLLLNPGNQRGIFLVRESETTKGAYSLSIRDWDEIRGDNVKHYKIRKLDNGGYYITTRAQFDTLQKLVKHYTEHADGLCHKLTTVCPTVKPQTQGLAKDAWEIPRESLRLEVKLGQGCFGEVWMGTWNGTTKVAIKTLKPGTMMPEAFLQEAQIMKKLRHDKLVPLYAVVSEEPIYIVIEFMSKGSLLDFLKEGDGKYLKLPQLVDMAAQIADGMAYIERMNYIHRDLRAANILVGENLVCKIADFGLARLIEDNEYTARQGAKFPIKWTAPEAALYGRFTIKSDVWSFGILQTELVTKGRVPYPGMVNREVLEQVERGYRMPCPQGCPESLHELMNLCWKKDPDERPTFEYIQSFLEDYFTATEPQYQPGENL

[3] = molecular target: panel of more than 300 wild-type and mutant kinases (313 kinase panel) (Homo sapiens, UniProt P09619); experiment: as above; conditions: kinase PDGFRβ; 1 μM
[4] = molecular target: panel of more than 300 wild-type and mutant kinases (313 kinase panel) (Homo sapiens, UniProt P15056); experiment: as above; conditions: kinase BRAF; 1 μM compound
Sequence of panel of more than 300 wild-type and mutant kinases (313 kinase panel) (Homo sapiens, UniProt P15056) (P15056 whole entry, stated change not applied): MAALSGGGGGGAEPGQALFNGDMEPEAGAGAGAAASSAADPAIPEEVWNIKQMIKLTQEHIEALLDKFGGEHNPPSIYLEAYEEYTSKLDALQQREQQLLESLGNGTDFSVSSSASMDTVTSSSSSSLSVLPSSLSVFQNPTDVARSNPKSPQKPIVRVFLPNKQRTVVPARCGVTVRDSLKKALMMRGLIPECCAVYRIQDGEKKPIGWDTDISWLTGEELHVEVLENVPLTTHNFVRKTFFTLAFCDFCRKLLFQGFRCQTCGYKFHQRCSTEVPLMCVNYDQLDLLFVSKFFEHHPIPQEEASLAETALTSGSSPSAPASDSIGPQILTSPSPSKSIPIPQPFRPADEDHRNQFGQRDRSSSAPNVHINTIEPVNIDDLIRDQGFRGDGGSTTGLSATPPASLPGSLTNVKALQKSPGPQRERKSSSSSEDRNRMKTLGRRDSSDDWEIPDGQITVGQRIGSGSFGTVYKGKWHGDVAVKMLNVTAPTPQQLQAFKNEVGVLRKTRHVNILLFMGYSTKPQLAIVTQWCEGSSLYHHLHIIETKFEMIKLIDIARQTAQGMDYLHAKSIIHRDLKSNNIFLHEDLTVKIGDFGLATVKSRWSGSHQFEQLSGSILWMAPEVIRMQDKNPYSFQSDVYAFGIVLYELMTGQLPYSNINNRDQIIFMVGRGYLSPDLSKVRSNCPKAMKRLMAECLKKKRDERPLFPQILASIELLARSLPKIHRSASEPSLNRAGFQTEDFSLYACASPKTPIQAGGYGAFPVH

[5] = molecular target: panel of more than 300 wild-type and mutant kinases (313 kinase panel) (Homo sapiens, UniProt P15056, V600E); experiment: as above; conditions: kinase BRAF(V600E); 1 μM compound
Sequence of panel of more than 300 wild-type and mutant kinases (313 kinase panel) (Homo sapiens, UniProt P15056, V600E) (P15056 whole entry V600E): as the sequence (P15056 whole entry, stated change not applied) above, with V600E counted along it

[6] = molecular target: panel of more than 300 wild-type and mutant kinases (313 kinase panel) (Homo sapiens, UniProt P22612); experiment: as above; conditions: kinase PKACγ; 1 μM
[7] = molecular target: T1, panel of more than 300 wild-type and mutant kinases (313 kinase panel) (Homo sapiens, UniProt P51955); experiment: as above; conditions: kinase NEK2; 1 μM
T1 sequence (P51955 1-445): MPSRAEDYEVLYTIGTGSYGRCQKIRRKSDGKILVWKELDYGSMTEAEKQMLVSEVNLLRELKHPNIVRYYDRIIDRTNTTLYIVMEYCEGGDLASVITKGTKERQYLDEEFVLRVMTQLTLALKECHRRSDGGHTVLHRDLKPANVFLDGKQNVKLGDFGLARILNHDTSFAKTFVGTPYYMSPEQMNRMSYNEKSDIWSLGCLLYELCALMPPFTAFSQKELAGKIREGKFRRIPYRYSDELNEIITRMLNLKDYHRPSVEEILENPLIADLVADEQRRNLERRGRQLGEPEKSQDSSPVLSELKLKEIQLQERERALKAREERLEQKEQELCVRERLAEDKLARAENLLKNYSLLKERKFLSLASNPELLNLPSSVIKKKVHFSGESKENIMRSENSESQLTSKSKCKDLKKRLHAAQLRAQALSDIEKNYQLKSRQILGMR

[8] = molecular target: T2, panel of more than 300 wild-type and mutant kinases (313 kinase panel) (Homo sapiens, UniProt Q16832); experiment: as above; conditions: kinase DDR2; compound at 1 μM
T2 sequence (Q16832 22-855): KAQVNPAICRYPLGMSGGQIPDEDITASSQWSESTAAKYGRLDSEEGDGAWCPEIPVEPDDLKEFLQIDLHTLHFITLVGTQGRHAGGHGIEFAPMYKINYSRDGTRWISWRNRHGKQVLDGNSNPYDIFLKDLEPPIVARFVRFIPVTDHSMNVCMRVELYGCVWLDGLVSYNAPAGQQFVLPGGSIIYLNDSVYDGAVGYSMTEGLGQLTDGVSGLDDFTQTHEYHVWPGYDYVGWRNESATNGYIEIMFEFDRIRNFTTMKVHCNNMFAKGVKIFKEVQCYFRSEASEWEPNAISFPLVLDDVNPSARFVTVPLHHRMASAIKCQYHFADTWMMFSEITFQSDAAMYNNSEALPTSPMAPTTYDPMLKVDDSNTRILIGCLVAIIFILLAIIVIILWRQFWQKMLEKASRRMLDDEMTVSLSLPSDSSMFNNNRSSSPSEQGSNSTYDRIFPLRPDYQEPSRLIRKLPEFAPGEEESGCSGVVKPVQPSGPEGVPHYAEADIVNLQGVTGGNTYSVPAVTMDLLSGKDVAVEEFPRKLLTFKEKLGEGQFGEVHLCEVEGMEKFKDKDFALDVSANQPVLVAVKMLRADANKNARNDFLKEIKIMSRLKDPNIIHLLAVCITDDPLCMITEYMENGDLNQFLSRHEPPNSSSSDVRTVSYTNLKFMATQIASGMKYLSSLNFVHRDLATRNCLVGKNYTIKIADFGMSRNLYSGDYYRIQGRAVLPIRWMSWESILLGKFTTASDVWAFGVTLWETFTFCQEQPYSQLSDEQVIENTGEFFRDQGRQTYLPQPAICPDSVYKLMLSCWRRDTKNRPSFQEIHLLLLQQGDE

[9] = molecular target: panel of more than 300 wild-type and mutant kinases (313 kinase panel) (Homo sapiens, UniProt Q8TDX7); experiment: as above; conditions: kinase NEK7; 1 μM

Which results are given for COc1cc2nccc(Oc3ccc(NC(=O)C4(C(=O)Nc5ccc(F)cc5)CC4)cc3)c2cc1OC [cabozantinib]?
IC50 ([1]; 4-4 cell, read-out: cell panel IC50, J82): 22.9 µM; IC50 ([1]; 4-4 cell, read-out: cell panel IC50, PA-1): 17.8 µM; IC50 ([1]; 4-4 cell, read-out: cell panel IC50, SJCRH30): 15.2 µM; IC50 ([1]; 4-4 cell, read-out: cell panel IC50, SR): 24.5 µM; IC50 ([1]; 769-P, read-out: cell panel IC50, 769-P): 30 µM; IC50 ([1]; 786-0, read-out: cell panel IC50, 786-0): 28.7 µM; IC50 ([1]; A 172, read-out: cell panel IC50, A-172): 14.6 µM; IC50 ([1]; A204, read-out: cell panel IC50, A-204): 0.082 µM; IC50 ([1]; A498, read-out: cell panel IC50, A-498): 24.1 µM; IC50 ([1]; A549, read-out: cell panel IC50, A-549): 18.5 µM; IC50 ([1]; A-375, read-out: cell panel IC50, A375): > 31.6 µM; IC50 ([1]; A-427, read-out: cell panel IC50, A-427): 14.3 µM; IC50 ([1]; ACHN, read-out: cell panel IC50, ACHN): 20.9 µM; IC50 ([1]; AN3-CA, read-out: cell panel IC50, AN3 CA): 6.03 µM; IC50 ([1]; AU565, read-out: cell panel IC50, AU-565): 20.1 µM; IC50 ([1]; BT-20, read-out: cell panel IC50, BT-20): > 31.6 µM; IC50 ([1]; BT-549, read-out: cell panel IC50, BT-549): 30.3 µM; IC50 ([1]; BXPC-3, read-out: cell panel IC50, BxPC-3): 24.1 µM; IC50 ([1]; C-33-A, read-out: cell panel IC50, C-33 A): 19.7 µM; IC50 ([1]; CAL-27, read-out: cell panel IC50, CAL 27): 23.4 µM; IC50 ([1]; CCRF-CEM, read-out: cell panel IC50, CCRF-CEM): 19.5 µM; IC50 ([1]; DLD-1, read-out: cell panel IC50, DLD-1): 22.7 µM; IC50 ([1]; FaDu, read-out: cell panel IC50, FaDu): > 31.6 µM; IC50 ([1]; HCT-15, read-out: cell panel IC50, HCT-15): 21.9 µM; IC50 ([1]; HCT-116, read-out: cell panel IC50, HCT-116): 20.9 µM; IC50 ([1]; Hs-578T, read-out: cell panel IC50, Hs 578T): 24.2 µM; IC50 ([1]; Jurkat E6.1, read-out: cell panel IC50, Jurkat E6.1): 11.5 µM; IC50 ([1]; K562, read-out: cell panel IC50, K-562): 3.94 µM; IC50 ([1]; LS174T, read-out: cell panel IC50, LS 174T): > 31.6 µM; IC50 ([1]; LoVo, read-out: cell panel IC50, LoVo): 7.63 µM; IC50 ([1]; MG-63, read-out: cell panel IC50, MG-63): 15.6 µM; IC50 ([1]; MOLT-4, read-out: cell panel IC50, MOLT-4): 12.1 µM; IC50 ([1]; MeWo, read-out: cell panel IC50, MeWo): 29.8 µM; IC50 ([1]; NCI-H82, read-out: cell panel IC50, NCI-H82): 16.8 µM; IC50 ([1]; NCI-H460, read-out: cell panel IC50, NCI-H460): 28.1 µM; IC50 ([1]; OVCAR-3, read-out: cell panel IC50, OVCAR-3): > 31.6 µM; IC50 ([1]; RPMI-7951, read-out: cell panel IC50, RPMI-7951): 14.9 µM; IC50 ([1]; SHP77, read-out: cell panel IC50, SHP-77): > 31.6 µM; IC50 ([1]; SK-N-AS, read-out: cell panel IC50, SK-N-AS): 31 µM; IC50 ([1]; SW48, read-out: cell panel IC50, SW48): 12.5 µM; IC50 ([1]; SW480, read-out: cell panel IC50, SW480): 16.2 µM; IC50 ([1]; SW-620, read-out: cell panel IC50, SW620): 6.24 µM; IC50 ([1]; U2OS, read-out: cell panel IC50, U-2 OS): 19.3 µM; IC50 ([1]; U-87 MG, 72 h, read-out: IC50 in cell proliferation assay (table S5 cellpanel data)): 22.3 µM; %-inhibition of YES(T348I) [2]: 67%; %-inhibition of PDGFRβ [3]: 84%; %-inhibition, BRAF [4]: 25%; %-inhibition, BRAF(V600E) [5]: 37%; %-inhibition of PKACγ [6]: -2.59%; %-inhibition of NEK2 [7]: -0.384%; %-inhibition of DDR2 [8]: 99%; %-inhibition of NEK7 [9]: -6%
